According to patent publication US8207137B2, “Method of inhibiting angiogenesis or invasion or formation of metastases” (INSERM, priority 2001, dated 2012):

Legend:
HMEC-1 cells = assay: Formation of capillary structures in fibrin gel, Cytodex beads model; type: cell-based, human
Procedure: The second model used beads on the order of 150 μm according to the technique described by Nehl et al. The cells used were HMEC-1 since CPAE could not be used in this model. The HMEC-1 cells cannot, however, be employed in the previously described model. The HMEC-1 cells adhere to the Cytodex 3 beads (Sigma) when the cells are incubated with the beads in the complete medium for 4 h at 37° C. The beads were then resuspended in a large volume of complete medium to have 30 cells/beads and agitated for 5 minutes every 30 minutes at 30 rpm for 12 h, followed by a continuous culture at the same rate for 4 days. When the entire surface of the beads was covered by cells, the beads were centrifuged at 800 g for 5 minutes to concentrate and incorporate them in a fibrin gel the same as that described for the preceding model, and the same as the methods of quantification and analysis of the results. In contrast to the model used for the CPAE, the capillary structures only appeared after 3 days of culture at 37° C.

MDA MB 231 cells = assay: Athymic murine model of tumor growth; type: in vivo; details: nude mice, MDA MB 231 tumors; AMEP expressed in muscle after gene electrotransfer, doxycycline induction; after 14 days of treatment
Text: The cDNA of AMEP was subcloned at the Eco RV site of the vector pBi (Clonetech, Palo Alto, Calif., USA). The expression of the gene of interest in this vector was under the dependence of a promoter responding to tetracycline in an expression system involving the eukaryote gene Tet-On. The Tet-On vector expresses the transactivator rtTA (reverse tetracycline transcriptional activator) and the vector Tet-tTS expresses the silencer tTS (tetracycline transcriptional silencer). The purifications of the plasmids were performed in a manner such that no endotoxin was present (Maxi endo free Kit, Quiagen). The purified plasmid DNA was dissolved in endotoxin-free sterile 0.9% NaCl at the desired concentration.
20 μg of plasmid pBi-AMEP, 10 μg of plasmid Tet-off and 20 μg of plasmid Tet-on were dissolved in 30 μl of sterile 0.9% NaCl and injected into the tibia cranial muscle of nude or C57B1/6 mice aged 8 weeks and previously anesthetized by intraperitoneal inoculation of pentobarbital as described by Mir et al. (Mir et al., 1999). […]
The MDA-MB-231 cells, which had been previously cultured to 80% confluence, were detached, washed and resuspended in PBS at the rate of 20·10^6 cells/ml. […] The size of the tumors was monitored for 14 days after induction.

[1] = test system: MDA MB 231 subcutaneous solid tumors; assay: Quantification of tumoral angiogenesis (CD31 immunohistochemistry and image analysis); type: in vivo, nude mice
Procedure: The tumor tissues were fixed in ethanol. Sections of 5 μm were prepared in paraffin. The endogenous peroxidase was extinguished by 3% of H2O2 for 10 minutes so that the sections could be used in immunohistochemistry. After washing the sections with distilled water then saturation with 1:10 Optimax serum (BioGenex, San Ramon, Calif.) for 10 minutes, the slides were incubated for 1 h with an anti-CD31 rat antibody (endothelial cell adhesion molecule) at 1:50. After two washings with Optimax for 4 minutes, the slides were incubated with an anti-rat goat polyclonal antibody coupled to biotin (1/50) followed by two 4-minute washings with Optimax. The slides were then treated with a DAB chromogenic substrate for 10 minutes, washed with distilled water, counterstained with Mayer's hematoxylin and mounted on Pertex. All of the slides were immunotagged and counterstained on the same day to ensure a standardized intensity of the tagging.
For each animal, a representative histological sample of the sections tagged with CD31 was subjected to image analysis using an AxiophotZeiss microscope (Germany) and a Sony 3CCD camera (resolution 768×576 pixels). Selection of an enlargement×100 allowed digitization of the totality of the sample. […] The images were analyzed with a specific Linux-based program producing a quantitative index from 0 to 255. […]

CPAE cells = assay: Formation of capillary structures in fibrin gel, cell aggregates model; type: cell-based, bovine; details: 5 μg/ml or 10 μg/ml, 3 days of incubation
Procedure: One of the models used the aggregates of CPAE cells according to the method described by Pepper et al., 1991. In brief, 10,000 CPAE were aggregated for 24 hours on 2% agarose on a 96-well plate. Three aggregates collected and incorporated in a fibrin gel: purified fibrinogen (3 mg/ml; Kabi) was dialyzed against MEM medium then mixed with 20% of FCS, 1% of L-glutamine, 1% of penicillin/streptomycin, 2 μM of aprotinin and AMEP at the desired concentration. Human thrombin (1 IU/ml; Sigma) was then added to obtain a fibrin gel to the surface of which was added the complete medium supplemented by aprotinin (2 μM), with this medium being changed every three days. Formation of capillary structures could be observed after 24 hours of culture. These capillaries were photographed under reverse microscope and the size of these structures was measured on the photographs. The statistical analysis (Mann-Whitney method) made it possible to determine whether the size of these structures was different.

AMEP: disintegrin domain of human metargidin (Met-420 to Glu-511, SEQ ID NO. 2), 91 amino acids, 9.7 kDa; recombinant or expressed in vivo by gene electrotransfer
reduction in the size of the tubes (capillary structures) (HMEC-1 cells; HMEC-1 on beads in fibrin gel, 5 μg/ml, after 10 days): 90% | effect on formation of capillary structures (HMEC-1 cells; HMEC-1 on beads in fibrin gel, 5 μg/ml, after three days of culture): inhibitory effect | formation of capillary structures (HMEC-1 cells; model using HMEC-1, in the presence of AMEP): total inhibition | inhibition of tumor volume (MDA MB 231 cells): 78% | statistical index of tumor vascularization, Mean ([1]; CD31-tagged tumor sections, index scale 0 to 255, control group 2.96): 1.38 | inhibition of the number of vessels within the tumors ([1]; tumors of nude mice treated with AMEP versus control): 53.4% | effect on capillary structures (CPAE cells): disorganization of capillary structures
